# Key:
# NS3a active = target: T1, NS3a active (Hepatitis C virus genotype 1b, UniProt Q9WMX2, A1176V/E1056D/L1047A/L1120M/Q1112P/R1052K/V1062L/V1196I); assay: Fluorescence polarization competition assay with FAM-ANR; assay type: binding
# T1 construct: Avi-His6-NS3a; made in house; host or cells: E. coli BL21 (DE3)
# Procedure: (§1) Fluorescence polarization competition assays were used to determine the ability of danoprevir to displace ANR. A 75 nM solution of NS3a in FP-Buffer was incubated with 50 nM FAM-ANR in a black 96-well plate for 1 hour in the dark. 3-fold serial dilutions of danoprevir were prepared in FP-Buffer such that, when added to the NS3a/FAM-ANR solution, the highest concentration of danoprevir tested was 10 μM. Plates were incubated for 1 hour in the dark. Fluorescence polarization was measured at 22° C. on a Perkin Elmer EnVision™ fluorometer (excitation, 495 nm; emission 520 nm). Each measurement was carried out in triplicate. Anisotropy values were obtained and a nonlinear regression model was used to fit curves with GraphPad Prism.
# NS3a inactive (S139A) = target: T2, NS3a inactive (S139A) (Hepatitis C virus genotype 1b, UniProt Q9WMX2, A1176V/E1056D/L1047A/L1120M/Q1112P/R1052K/S1165A/V1062L/V1196I); assay: as above; assay type: binding; conditions: 75 nM NS3a, read-out: apparent IC50
# T2 construct: Avi-His6-NS3a; the text calls the FP protein non-biotinylated) (N); made in house; host or cells: E. coli BL21 (DE3)
# Procedure: as §1
# GFP reporter = assay: Combined CXCR4 and GFP induction with scRNAs, NS3a-VPR; assay type: cell-based; conditions: read-out: EC50 (GFP expression)
# NS3a = conditions: read-out: NS3a:drug Ki; published enzyme inhibition studies; cited from earlier work
# [1] = system: mCherry reporter gene in HEK293T cells; assay: Chemically-disruptable Gal4(DBD)-NS3a(H1)/ANR-VPR transcriptional regulation; assay type: cell-based; conditions: 1 μM drug, 24 hours
# Procedure: Cells were subsequently transfected with 1 μg of the Gal4 reporter plasmid (UAS-mCherry™/CMV-Gal4-NS3a(H1)-P2A-ANR-Myc-BFP-VPR-NLS) in OptiMem™. […] Supernatant was subsequently removed and the cells were re-suspended in 400 μL DPBS and analyzed on a FACS LSRII (BD Biosciences).
# For Gal4/NS3a-CDP mediated transcriptional activation FACS experiments, 10,000 single cell events were collected for each of the samples run. […] The gathered FACS data were analyzed using FlowJo™ (v.10.1).
# [2] = system: RAS/ERK pathway in HEK293 cells; assay: Activation of NS3a-CDAR, phospho-ERK blot; assay type: cell-based; conditions: 10 μM drug, 60 min
# Procedure: 18-24 hours prior to transfection, 3.0×10^5 HEK293 cells were plated onto poly-D-lysine 12 well plates. Immediately prior to transfection, media was aspirated and cells were washed with 1 mL of pre-warmed (37° C.) PBS, then serum starved with FBS-free DMEM. Following serum starvation, cells were transfected with 1 μg of FLAG-tagged NS3a-CDAR, BH3-NS3a-CDAR, or an empty pCDNA5 vector. Transfected cells were allowed to serum stave for 18-20 hours prior to drug treatment. For drug treatment, serum-free media was prepared with DMSO or 10 μM of a drug. Media was aspirated, washed once with pre-warmed DPBS, then treated with drug/DMSO media for the requisite amount of time. Media was subsequently aspirated and the cells were washed twice with 1 mL chilled PBS, then lysed with 75 μL Mod. RIPA buffer (50 mM Tris, pH 7.8, 1% IGEPAL CA-630, 150 mM NaCl, 1 mM EDTA, 2 mM Na3VO4, 30 mM NaF, Pierce Protease Inhibitor Tablet). Cleared lysates were subjected to SDS-PAGE and transferred to nitrocellulose. Blocking and antibody incubations were done in TBS with 0.1% Tween-20 (v/v) and blocking buffer (Odyssey). Primary antibodies were all purchased from Cell Signaling Technologies and were diluted as follows: Total ERK (1:2500, #9107), phosphorylated ERK (1:2500, #4370), FLAG (1:2,500, #D6W5B). Blots were washed three times in TBS with 0.1% Tween-20. Antibody binding was detected by using near-infrared-dye-conjugated secondary antibodies and visualized on the LI-COR Odyssey scanner. Blots were quantified via densitometry with Image Studio (LI-COR).
# GFP, CD95 and CXCR4 = assay: 3-gene experiment (GFP, CD95, CXCR4) by RT-qPCR; assay type: cell-based; conditions: 10 μM danoprevir, 1 μM grazoprevir, 1 μM asunaprevir
# Description: Cells were harvested on day 5 as described above for other samples to be analyzed to qPCR.
# HeLa cells = assay: Widefield microscopy for signaling phenotype analysis; assay type: cell-based; conditions: EGFP-DNCR2-TIAM, BFP-GNCR1-LARG and NS3a-CAAX in HeLa cells
# Procedure: Widefield images were collected in an environmental chamber with humidity control, 37° C., and 5% CO2 on a Leica DMi8 automated fluorescence microscope. Cells were plated on glass-bottomed 96-well plates (Cellvis). Plates were treated with 10 μg/mL bovine fibronectin (Sigma Aldrich) for 1 hour and washed once with PBS.
# The cell line used was TRex™-HeLa (ThermoFisher Scientific), into which Lifeact-mCherry™ was stably integrated into the doxycycline-regulated Flp-In site by co-transfection of the pCDNA5-FRT/TO-Lifeact-mCherry™ vector with the Flp recombinase plasmid pOG44 (ThermoFisher Scientific) according to manufacturer's protocols. Lifeact-mCherry™ was induced by addition of 1 μg/mL doxycycline to culture media. For expression of signaling effector proteins, 1 day prior to imaging, 5×10^6 cells were transiently transfected with 10 μg DNA in a 100 μL electroporation tip using a Neon transfection system (ThermoFisher Scientific) according to manufacturer's recommendations for HeLa cells. 5×10^3 cells were plated in each well of the 96-well plate used for imaging. Cells recovered in complete DMEM with 10% FBS overnight. […] For Rac/Rho regulation, the construct PB-NS3a-CAAX-IRES-EGFP-DNCR2-TIAM-P2a-BFP-GNCR1-LARG was used, with images collected for the mCherry™ (Lifeact) and EGFP (DNCR2-TIAM) channels. […]
# CXCR4 = assay: Danoprevir/grazoprevir titrations to linearize CXCR4 or CD95 expression; assay type: cell-based, human; conditions: increasing proportion of grazoprevir added to danoprevir titration
# Description: Data were fit to four-parameter log dose-response curves (fitting EC50, upper and lower baselines, and Hill coefficient) in Graphpad Prism 5.
structure (smiles),measurement,setting,value
CC(C)(C)OC(=O)N[C@H]1CCCCC/C=C\[C@@H]2C[C@@]2(C(=O)NS(=O)(=O)C2CC2)NC(=O)[C@@H]2C[C@@H](OC(=O)N3Cc4cccc(F)c4C3)CN2C1=O [danoprevir],displacement of ANR from NS3a,NS3a active,potently and dose-dependently displace ANR from NS3a
same,IC50,"NS3a active; NS3a active, 75 nM NS3a, FAM-ANR, read-out: apparent IC50",< 75 nM
same,IC50,NS3a inactive (S139A),< 75 nM
same,EC50,GFP reporter,0.79 nM
same,Ki,NS3a,1 nM
same,mCherry expression after drug treatment,[1],decreased mCherry™ expression to background levels
same,phospho-ERK levels in cells expressing NS3a-CDAR,[2],robust increase in phospho-ERK levels
same,transcriptional output state in 3-gene system,"GFP, CD95 and CXCR4",CD95 expression under control of DNCR2
same,cell shape change,HeLa cells,caused cell expansion
same,linear output range of CXCR4 expression,CXCR4,3 orders of magnitude

# Reference: US20220025003A1, “REAGENTS AND METHODS FOR CONTROLLING PROTEIN FUNCTION AND INTERACTION” (University of Washington, priority 2018, published 2022)
